Results on 18 compounds are retold here after patent US20230295106A1 (priority 2019, published 2023).

For experiment [1], the target named is T1, 5-HT2A (Homo sapiens, UniProt P28223). Kind of experiment: Serotonin 5-HT2A in vitro radioligand binding competition assay ([3H]-DOI). Set-up: Epics Therapeutics S.A. (Belgium) FAST-0505B; host or cells: membrane extracts.
The target of experiment [2] is T1, 5-HT2A. As to the kind of experiment: Serotonin 5-HT2A in vitro cellular IPOne agonism assay (HTRF). In kind it is cell-based. Set-up: host or cells: CHO-K1. On the technique in general: TR-FRET usually uses a lanthanide donor and a delayed reading to cut background.
Another experiment deals with rat cortical neurons. As to the kind of experiment: Neurite outgrowth in primary neuronal cultures assay. In kind it is cell-based. The arrangement: key: A: Statistically significant mean increase as a percent of DMSO control at 10 μM or less; B: No statistically significant mean increase as a percent of DMSO control at 10 μM or less. Particulars: 72 h, vs DMSO control, at 10 μM or less. An excerpt:
Neurite Outgrowth in Primary Neuronal Cultures Assay. Changes in the pattern of neurite outgrowth have been implicated in psychiatric and neurodegenerative disorders as well as traumatic injuries. The discovery of new compounds that can positively affect neuritogenesis are important for developing new therapeutics for neurological diseases. Measurement of neurite outgrowth of rat cortical neurons using an automated image-based assay was used to determine the neuroplastic effects of the compounds of the present invention. The neurite outgrowth assay was performed at Neurofit SAS (France) as described below.
Pregnant Wistar rats (Janvier; France) were used for the study. They were delivered 6 days before their use. Upon arrival at Neurofit animal facility, they were housed one per cage and maintained in a room with controlled temperature (21-22° C.) and a reversed light-dark cycle (12 h/12 h; lights on: 17:30-05:30; lights off: 05:30-17:30) with food and water available ad libitum.
Female Wistar rats of 17 days gestation were killed by cervical dislocation and the fetuses were removed from the uterus. Their brains were placed in ice-cold medium of Leibovitz (L15, Gibco, Fisher bioblock, France). Cortices were dissected and meninges were carefully removed. The cortical neurons were dissociated by trypsinization for 30 min at 37° C. (trypsin-EDTA, Gibco) in presence of 0.1 mg/ml DNAse I (Roche, France). The reaction was stopped by addition of Dulbecco's Modified Eagle Medium (DMEM; Gibco) with 10% of fetal bovine serum (FBS; Gibco). The suspension was triturated with a 10-ml pipette and using a needle syringe 21 G and centrifuged at 350×g for 10 min at room temperature. The pellet of dissociated cells was resuspended in a medium consisting of Neurobasal (Gibco) supplemented with 2% B27 supplement (Gibco), 0.5 mM L-Glutamine (Gibco), an antibiotic-antimicotic mixture. Viable cells were counted in a Neubauer cytometer using the trypan blue exclusion test (Sigma). Cells were seeded at a density of 10000 cells per well in 96-well plate (Costar) precoated with poly-L-lysine. Test compound at different concentrations were added to the cultures. Donepezil (positive control) was tested at 250 nM.
After 72 h (3 days) of plating, cultures were fixed with paraformaldehyde in PBS (4%, Sigma) for 30 min at 4° C. Then, cells were successively permeabilized with 0.1% Triton X100 for 30 min, saturated with PBS containing 3% of BSA and were incubated 1 h with anti-beta III tubulin antibody (Sigma) at 1/10000 in PBS containing 0.5% of BSA. Cells were washed three times with PBS containing 0.5% of BSA, and they were incubated 1 h with goat anti-mouse antibody coupled with AF488 (Invitrogen A11001) diluted at 1/1000 in PBS containing 0.5% of BSA. Finally, nuclei were staining with DAPI 1 mg/ml at 1/1000 in PBS containing 0.5% of BSA. After rinsing with PBS, the plate was filmed and neurite networks were examined and analyzed using High-Content Screening (CellInsight, Thermo Scientific). The average number of neurites per neuron and the average total length of neurites per neuron were the main parameters analyzed. Analysis of data was performed using analysis of variance (ANOVA). The Fisher's Protected Least Significant Difference test was used for multiple comparisons. A p value <0.05 was considered significant. The software used is StatView 5.0 from SAS Institut.

The mark [3] stands for this setting: 5-HT2A Radioligand Binding Activity, competition with [3H]-DOI, membrane extracts.
Where [4] appears, read: 5-HT2A IPOne Agonism Activity, CHO-K1 cells, 60 min at 37° C.

Like-named read-outs stand apart in the source and are kept apart here.

T1 sequence (P28223 whole entry): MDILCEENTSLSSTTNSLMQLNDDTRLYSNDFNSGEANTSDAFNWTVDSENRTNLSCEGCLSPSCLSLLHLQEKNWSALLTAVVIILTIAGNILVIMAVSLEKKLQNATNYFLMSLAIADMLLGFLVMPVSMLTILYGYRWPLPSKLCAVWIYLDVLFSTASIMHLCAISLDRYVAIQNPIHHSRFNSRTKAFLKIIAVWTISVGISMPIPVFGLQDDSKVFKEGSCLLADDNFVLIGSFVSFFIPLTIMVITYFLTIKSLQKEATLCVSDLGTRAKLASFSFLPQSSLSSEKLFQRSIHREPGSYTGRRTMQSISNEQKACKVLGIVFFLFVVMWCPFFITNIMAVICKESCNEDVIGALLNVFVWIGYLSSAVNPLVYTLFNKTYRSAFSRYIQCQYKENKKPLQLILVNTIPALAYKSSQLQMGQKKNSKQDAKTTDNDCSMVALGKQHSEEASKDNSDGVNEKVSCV

As to `CN(C)C1Cc2cccc3ccn(c23)C1` (single isomer, unassigned) [Compound 14, N,N-dimethyl-5,6-dihydro-4H-pyrrolo[3,2,1-ij]quinolin-5-amine], on 5-HT2A [1], the IC50 is 0.101 to 1 µM. At 5-HT2A [2], the EC50 was > 10 µM. Also, in the experiment with rat cortical neurons, the “Increase in Neurite Length” value is listed as “A” and the “Increase in Neurite Number” value is reported as “A”.
`CCN(CC)C(=O)[C@@H]1C=C(c2cccc(OC)c2)CN(C)C1` (single isomer, unassigned) [Compound 10, N,N-diethyl-5-(3-methoxyphenyl)-1-methyl-1,2,3,6-tetrahydropyridine-3-carboxamide] registered an IC50 at 5-HT2A [1] (setting [3]) of 0.101 to 1 µM. In addition, the EC50 at 5-HT2A [2] (setting [4]) lay within 0.101 to 1 µM. Besides, in the experiment on rat cortical neurons, the “Increase in Neurite Length” value is “A” and the “Increase in Neurite Number” value is “A”.
As for `CCN(CC)C(=O)[C@@H]1C=C(c2cccc3[nH]ccc23)CN(C)C1` (single isomer, unassigned) [Compound 12, N,N-diethyl-5-(1H-indol-4-yl)-1-methyl-1,2,3,6-tetrahydropyridine-3-carboxamide], in the experiment with rat cortical neurons, the “Increase in Neurite Length” value is given as “A” and the “Increase in Neurite Number” value was “A”.
`NC1Cc2cccc3[nH]cc(c23)C1` (stereo not shown) [Compound 27, 1,3,4,5-tetrahydrobenzo[cd]indol-4-amine]: the IC50 at 5-HT2A [1] is 1 to 10 µM. For the same compound, the EC50 on 5-HT2A [2] lay within 1 to 10 µM. Moreover, in the experiment on rat cortical neurons, the “Increase in Neurite Length” value is given as “A” and the “Increase in Neurite Number” value is reported as “A”.
`NC1Cc2cc(F)cc3ccn(c23)C1` (stereo not shown) [Compound 17, 8-fluoro-5,6-dihydro-4H-pyrrolo[3,2,1-ij]quinolin-5-amine] had an IC50 at 5-HT2A [1] of 1 to 10 µM. In addition, the EC50 on 5-HT2A [2] is > 10 µM.
Consider `CCN(CC)C(=O)[C@@H]1C=C(c2cccc3[nH]ccc23)CN(C)C1` (single isomer, unassigned) [Compound 11, N,N-diethyl-5-(1H-indol-4-yl)-1-methyl-1,2,3,6-tetrahydropyridine-3-carboxamide], for which, in the experiment on rat cortical neurons, the “Increase in Neurite Length” value was “A” and the “Increase in Neurite Number” value is given as “A”.
Take `NC1Cc2c(F)ccc3ccn(c23)C1` (stereo not shown) [Compound 19, 7-fluoro-5,6-dihydro-4H-pyrrolo[3,2,1-ij]quinolin-5-amine]: the IC50 at 5-HT2A [1] was > 10 µM. Moreover, the EC50 at 5-HT2A [2] was > 10 µM.
The compound `CCN(CC)C(=O)[C@@H]1C=C(c2ccccc2OC)CN(C)C1` (single isomer, unassigned) [Compound 8, N,N-diethyl-5-(2-methoxyphenyl)-1-methyl-1,2,3,6-tetrahydropyridine-3-carboxamide] showed an IC50 at 5-HT2A [1] (setting [3]) of 0.101 to 1 µM. The compound also had an EC50 at 5-HT2A [2] (setting [4]) of 0.101 to 1 µM. For the same compound, in the experiment with rat cortical neurons, the “Increase in Neurite Length” value is given as “A” and the “Increase in Neurite Number” value is listed as “A”.
With `NC1Cc2cc(Cl)cc3ccn(c23)C1` (stereo not shown) [Compound 21, 8-chloro-5,6-dihydro-4H-pyrrolo[3,2,1-ij]quinolin-5-amine], at 5-HT2A [1], the IC50 fell in the range of 1 to 10 µM. The compound also showed an EC50 on 5-HT2A [2] of 1 to 10 µM.
As to `CCN(CC)C(=O)[C@@H]1C=C(c2cccc(OC)c2)CN(C)C1` (single isomer, unassigned) [Compound 9, N,N-diethyl-5-(3-methoxyphenyl)-1-methyl-1,2,3,6-tetrahydropyridine-3-carboxamide], the IC50 at 5-HT2A [1] (setting [3]) was in the range of 0.01 to 0.1 µM. The same compound displayed an EC50 at 5-HT2A [2] (setting [4]) of 0.01 to 0.1 µM. Also, in the experiment with rat cortical neurons, the “Increase in Neurite Length” value is “A” and the “Increase in Neurite Number” value was “A”.
For `COc1cc2c3c(ccn3CC(N)C2)c1` (stereo not shown) [Compound 25, 8-methoxy-5,6-dihydro-4H-pyrrolo[3,2,1-ij]quinolin-5-amine], the IC50 at 5-HT2A [1] is > 10 µM. Moreover, the EC50 on 5-HT2A [2] was > 10 µM.
In turn, `CCN(CC)C1Cc2cccc3ccn(c23)C1` (stereo not shown) [Compound 16, N,N-diethyl-5,6-dihydro-4H-pyrrolo[3,2,1-]quinolin-5-amine] showed an IC50 on 5-HT2A [1] of 0.101 to 1 µM. Further, the EC50 on 5-HT2A [2] fell in the range of 0.101 to 1 µM. Moreover, in the experiment with rat cortical neurons, the “Increase in Neurite Length” value is listed as “A” and the “Increase in Neurite Number” value is listed as “A”.
`NC1Cc2c(Cl)ccc3ccn(c23)C1` (stereo not shown) [Compound 23, 7-chloro-5,6-dihydro-4H-pyrrolo[3,2,1-ij]quinolin-5-amine] returned an IC50 on 5-HT2A [1] of 1 to 10 µM. At 5-HT2A [2], this compound registered an EC50 of 1 to 10 µM.
With `CN(C)C1Cc2cccc3ccn(c23)C1` (single isomer, unassigned) [Compound 15, N,N-dimethyl-5,6-dihydro-4H-pyrrolo[3,2,1-ij]quinolin-5-amine], at 5-HT2A [1] (read-out: 5-HT2A Radioligand Binding Activity, competition with [3H]-DOI, membrane extracts), the IC50 was 0.101 to 1 µM. For the same compound, the EC50 at 5-HT2A [2] (read-out: 5-HT2A IPOne Agonism Activity, CHO-K1 cells, 60 min at 37° C.) was > 10 µM. In the experiment on rat cortical neurons, the “Increase in Neurite Length” value is listed as “B” and the “Increase in Neurite Number” value is reported as “B”.
For the compound `CCN(CC)C(=O)[C@@H]1C=C(c2ccccc2OC)CN(C)C1` (single isomer, unassigned) [Compound 7, N,N-diethyl-5-(2-methoxyphenyl)-1-methyl-1,2,3,6-tetrahydropyridine-3-carboxamide], the IC50 on 5-HT2A [1] (setting [3]) lay in the range of 0.01 to 0.1 µM. On 5-HT2A [2] (setting [4]), this compound came in with an EC50 of 0.01 to 0.1 µM. Besides, in the experiment with rat cortical neurons, the “Increase in Neurite Length” value is on record as “B” and the “Increase in Neurite Number” value is given as “B”.
At 5-HT2A [1] (setting [3]), `CCN(CC)C(=O)[C@@H]1C=C(c2cc(OC)cc(OC)c2)CN(C)C1` (single isomer, unassigned) [Compound 6, 5-(3,5-dimethoxyphenyl)-N,N-diethyl-1-methyl-1,2,3,6-tetrahydropyridine-3-carboxamide] came in with an IC50 of 1 to 10 µM. For the same compound, on 5-HT2A [2] (setting [4]), the EC50 was in the range of 0.101 to 1 µM. In addition, in the experiment on rat cortical neurons, the “Increase in Neurite Length” value was “A” and the “Increase in Neurite Number” value is on record as “A”.
For the compound `NC1Cc2cccc3ccn(c23)C1` (stereo not shown) [Compound 13, 5,6-dihydro-4H-pyrrolo[3,2,1-ij]quinolin-5-amine], on 5-HT2A [1], the IC50 lay in the range of 1 to 10 µM. In addition, the EC50 on 5-HT2A [2] was > 10 µM. In addition, in the experiment on rat cortical neurons, the “Increase in Neurite Length” value was “A” and the “Increase in Neurite Number” value is listed as “A”.
For the compound `CCN(CC)C(=O)[C@@H]1C=C(c2cc(OC)cc(OC)c2)CN(C)C1` (single isomer, unassigned) [Compound 5, 5-(3,5-dimethoxyphenyl)-N,N-diethyl-1-methyl-1,2,3,6-tetrahydropyridine-3-carboxamide], the IC50 at 5-HT2A [1] (setting [3]) lay within 0.101 to 1 µM. This compound also showed an EC50 on 5-HT2A [2] (setting [4]) of 0.01 to 0.1 µM. In addition, in the experiment on rat cortical neurons, the “Increase in Neurite Length” value was “A” and the “Increase in Neurite Number” value was “A”.
